Laboratory results: patent US8853373B2, “Method and reagent for gene sequence analysis” (Hitachi, Ltd., priority 2009, dated 2014)

Key:
luciferase = luciferase (Photinus pyralis, UniProt P08659); test: Evaluation of substrate specificity for luciferase (luminescence on dispensing the substrate); assay type: biochemical; conditions: for Substrate specificity (S) for luciferase, relative to that of ATP: amount of luminescence per unit concentration, substrate specificity of ATP normalized as 1
Experimental: In respect to the nucleic acid substrates synthesized, whether or not the substrates became a substrate for luciferase was evaluated by the following procedure. First, a luminescence reagent designated in Condition 1 of Table 1 was prepared.
Next, a reaction solution was prepared using 20 μL of this luminescence reagent, and 0.2 μL of a nucleic acid substrate of evaluation subject was injected. Then, luminescence emitted at this occasion was estimated. FIG. 6 is a graph showing the amount of luminescence when ATP, dATP, C^7dATP, and dATPαS are each dispensed as a substrate. The abscissa (C) indicates a final concentration of the compound in a reaction reagent. For example, when 0.2 μl of 1 μM substrate is dispensed, the final concentration is about 0.01 μM. An amount of luminescence (U) indicated in the ordinate was plotted by normalizing the amount of luminescence at 0.01 μM of ATP as 1. From this graph, the amount of luminescence (U) is found to be proportional to the final concentration (C). Because of this, as a substrate specificity (or substrate reactivity) for luciferase, the value (S) indicating the amount of luminescence per unit concentration is defined as described below. Substrate specificity (S)≡Amount of luminescence (U)/Final concentration (C)[μM]×0.01 (In this Definition, the Substrate Specificity of ATP is Normalized as 1).
The four points designated in the left side of the graph indicate each substrate specificity (S) of ATP, dATP, dATPαS, and C^7dATP. For a sequencing method using a stepwise chemical reaction represented by pyrosequencing, the amount of ATP generated from pyrophosphate produced in elongation of one nucleotide is equivalent to the amount of a target present in a reaction solution when all of the targets have been elongated. In addition, elongation of a plurality of nucleotides causes the amount to be multiplied by the number of the nucleotides. Generally speaking, the amount of a nucleic acid substrate which should be dispensed per reaction for sequencing requires about 100 times the amount of the target for analysis. This is because a sequenced region may sometimes contain about 10 consecutive identical nucleotides; and a reaction solution for this sequencing method has a substrate-degrading enzyme together, so that the nucleic acid elongation and substrate degradation are competed. Shortage of the substrates causes incomplete elongation, so that the following sequence analysis cannot be carried out. […] As a countermeasure against it, the substrate having about 100 times the target amount which has been generally used is preferably dispensed per reaction.
In this Example, the synthesized nucleic acid substrates were purified by liquid chromatography. However, removal of pyrophosphate that had been incorporated during the synthesis may be insufficiently carried out only by liquid chromatography-mediated purification. At that occasion, the present inventors treated the synthesized nucleic acid substrates by a pyrophosphate-degrading enzyme (PPase) to decompose the pyrophosphate. Specifically, the synthesized nucleic acid substrate was diluted in a reaction solution (100 mM Tris-Acetate, 0.5 mM EDTA, 5 mM Mg-Acetate, 1 mM DTT, pH 7.5) at a concentration of 500 μM. Then, PPase was added at 0.2 mU/μL, and the mixture was reacted at 30° C. for 30 minutes, which caused degradation of pyrophosphate in the solution. This method represents one example. […]

Sequence S1 = test: Sequence analysis by stepwise chemical reaction (pyrogram), ATP sulfurylase system, Condition 3; assay type: biochemical; conditions: Sequence S1 (maximum two consecutive nucleotides); final concentration 2 μM
Experimental: Next, by using the developed substrates, nucleotide sequences were analyzed. FIG. 15 is pyrograms showing the results of sequence analysis using synthetic nucleotide A3d as a substitute for dATP in a sequencing method using a stepwise chemical reaction. The analyzed oligo Sequence S1 and a primer […] are described below.
Of note is that the Sequence P2 represents a primer sequence. This primer can complementarily bind to the underlined portion of the above Sequence S1. In addition, reagent conditions used for the sequence analysis were designated in Condition 3 of Table 1.
At the bottom of each diagram, the injected nucleic acid substrate species (the injected nucleotide type) were designated. Among the species, the substrate represented by “A” is A3d in (1) and dATPαS in (2), respectively. Also, at the top, nucleotide types which were incorporated in this oligo were designated. Specifically, the nucleotide types represent a complementary strand sequence that is an upstream sequence of the portion (the underlined portion of the Sequence S1) which complementarily binds to the primer P2. […] In addition, the broken lines represent standard values which convert the amount of the resulting luminescence into the number of nucleotides. For example, with regard to the above “CC”, the amount of luminescence equivalent to two nucleotides was observed. […]

Sequence of luciferase (P08659 whole entry, species assumed): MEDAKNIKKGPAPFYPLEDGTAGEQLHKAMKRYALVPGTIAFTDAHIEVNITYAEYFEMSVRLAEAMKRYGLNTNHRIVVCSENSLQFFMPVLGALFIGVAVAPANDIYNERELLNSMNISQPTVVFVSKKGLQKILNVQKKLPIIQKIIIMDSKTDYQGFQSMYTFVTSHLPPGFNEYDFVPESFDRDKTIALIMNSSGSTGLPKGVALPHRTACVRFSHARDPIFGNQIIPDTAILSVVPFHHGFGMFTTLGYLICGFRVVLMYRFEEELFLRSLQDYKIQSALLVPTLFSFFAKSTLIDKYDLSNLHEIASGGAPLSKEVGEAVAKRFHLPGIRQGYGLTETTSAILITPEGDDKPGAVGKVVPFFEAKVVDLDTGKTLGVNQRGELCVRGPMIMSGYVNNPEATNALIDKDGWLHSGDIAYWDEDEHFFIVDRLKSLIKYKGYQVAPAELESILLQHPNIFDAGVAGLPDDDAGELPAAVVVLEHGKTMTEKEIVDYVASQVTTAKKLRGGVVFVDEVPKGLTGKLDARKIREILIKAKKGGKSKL

| Structure (SMILES) | Substrate specificity for luciferase compared with that of dATPαS (luciferase; FIG. 7) | Substrate specificity (S) for luciferase, relative to that of ATP (luciferase) | Sequence analysis result as substitute for dATP (Sequence S1) |
| --- | --- | --- | --- |
| Nc1ncnc2c1c(/C=C/C(=O)NCCc1ccncc1)cn2[C@H]1CC(O)[C@@H](COP(=O)(O)OP(=O)(O)OP(=O)(O)O)O1 (some centres unmarked) [A3d] | about one order higher | 1/1000 | can be used for a nucleotide sequence analysis |
| Nc1ncnc2c1ncn2[C@H]1C[C@H](O)[C@@H](COP(O)(=S)OP(=O)(O)OP(=O)(O)O)O1 (some centres unmarked) [dATPαS] |  | 1/10000 | can be used for a nucleotide sequence analysis |
